Results taken from PMC12959773 (Protein & Cell, 2025).
Changes are numbered by the printed parent chain.

Legend:
SLC7A9-SLC3A1 complex = target: T1, SLC7A9-SLC3A1 complex (Homo sapiens, UniProt P82251); assay: microscale thermophoresis; settings: read-out: binding affinity
T1 construct: heterodimeric light/heavy chain transporter, dimer of heterodimers; ectopically expressed in HEK293T cells; with Amino acid transporter heavy chain SLC3A1
T1 sequence (P82251 1-487): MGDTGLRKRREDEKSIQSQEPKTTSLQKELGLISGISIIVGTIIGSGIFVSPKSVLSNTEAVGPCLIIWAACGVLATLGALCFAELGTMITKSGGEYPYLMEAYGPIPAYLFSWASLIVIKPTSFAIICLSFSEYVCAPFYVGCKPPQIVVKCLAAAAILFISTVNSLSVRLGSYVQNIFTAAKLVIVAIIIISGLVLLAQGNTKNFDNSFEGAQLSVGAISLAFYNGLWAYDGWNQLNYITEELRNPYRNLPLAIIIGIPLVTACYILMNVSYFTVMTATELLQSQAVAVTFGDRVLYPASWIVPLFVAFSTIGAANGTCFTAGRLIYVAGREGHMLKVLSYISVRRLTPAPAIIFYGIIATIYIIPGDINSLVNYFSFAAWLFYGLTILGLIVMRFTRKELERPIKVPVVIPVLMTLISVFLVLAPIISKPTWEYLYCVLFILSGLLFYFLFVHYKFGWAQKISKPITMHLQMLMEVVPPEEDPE
T1 sequence (Q07837 1-685 partner): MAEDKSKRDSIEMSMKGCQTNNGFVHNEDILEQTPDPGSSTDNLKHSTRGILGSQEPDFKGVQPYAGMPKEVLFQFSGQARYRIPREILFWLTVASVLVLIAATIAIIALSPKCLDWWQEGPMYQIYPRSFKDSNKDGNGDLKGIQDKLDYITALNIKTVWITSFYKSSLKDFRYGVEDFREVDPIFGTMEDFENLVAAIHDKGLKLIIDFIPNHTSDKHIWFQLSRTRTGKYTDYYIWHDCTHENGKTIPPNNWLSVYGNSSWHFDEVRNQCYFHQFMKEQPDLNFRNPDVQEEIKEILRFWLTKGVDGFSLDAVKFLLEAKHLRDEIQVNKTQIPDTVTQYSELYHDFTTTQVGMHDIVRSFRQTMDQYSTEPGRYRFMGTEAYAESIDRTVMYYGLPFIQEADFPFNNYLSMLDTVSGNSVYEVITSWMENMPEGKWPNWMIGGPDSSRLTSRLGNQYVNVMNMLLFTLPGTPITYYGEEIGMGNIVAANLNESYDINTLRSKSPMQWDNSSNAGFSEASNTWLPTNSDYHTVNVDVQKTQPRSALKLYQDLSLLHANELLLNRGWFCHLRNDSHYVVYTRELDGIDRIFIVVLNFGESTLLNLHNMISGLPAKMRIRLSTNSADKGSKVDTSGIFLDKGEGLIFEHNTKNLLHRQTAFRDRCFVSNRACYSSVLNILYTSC

SLC7A13-SLC3A1 complex [1] = target: T2, SLC7A13-SLC3A1 complex (Homo sapiens, UniProt Q8TCU3); assay: microscale thermophoresis; settings: read-out: binding affinity
T2 construct: heterodimeric light/heavy chain transporter, dimer of heterodimers; ectopically expressed in HEK293T / HEK293 cells (Expi293 for cryo-EM); with Amino acid transporter heavy chain SLC3A1
T2 sequence (Q8TCU3 1-470): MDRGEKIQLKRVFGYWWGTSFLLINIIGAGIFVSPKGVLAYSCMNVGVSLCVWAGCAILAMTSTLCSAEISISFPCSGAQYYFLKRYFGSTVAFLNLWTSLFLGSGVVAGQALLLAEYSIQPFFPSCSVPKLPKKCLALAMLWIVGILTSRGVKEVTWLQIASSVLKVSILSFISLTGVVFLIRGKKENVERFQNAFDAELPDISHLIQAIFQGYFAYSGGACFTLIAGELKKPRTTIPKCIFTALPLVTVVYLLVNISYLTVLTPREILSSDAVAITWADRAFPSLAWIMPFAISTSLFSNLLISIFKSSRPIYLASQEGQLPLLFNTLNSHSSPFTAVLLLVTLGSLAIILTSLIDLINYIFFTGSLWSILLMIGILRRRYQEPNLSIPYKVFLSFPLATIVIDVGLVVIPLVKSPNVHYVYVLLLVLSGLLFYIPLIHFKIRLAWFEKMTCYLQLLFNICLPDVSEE
T2 sequence (Q07837 1-685 partner): T1 sequence (Q07837 1-685 partner)

SLC7A13-SLC3A1 complex [2] = target: T3, SLC7A13-SLC3A1 complex (Homo sapiens, UniProt Q8TCU3, T225A); assay: [2H]-cystine uptake, isotope tracking; type: cell-based; settings: HEK293 cells transfected with SLC7A13 and SLC3A1; labelled compound
T3 construct: heterodimeric light/heavy chain transporter, dimer of heterodimers; ectopically expressed in HEK293T / HEK293 cells (Expi293 for cryo-EM); with Amino acid transporter heavy chain SLC3A1
T3 sequence (Q8TCU3 1-470 T225A): T2 sequence (Q8TCU3 1-470) with T225A
T3 sequence (Q07837 1-685 partner): T1 sequence (Q07837 1-685 partner)

SLC7A13-SLC3A1 complex [3] = target: T4, SLC7A13-SLC3A1 complex (Homo sapiens, UniProt Q8TCU3, F216A); assay: [2H]-cystine uptake, isotope tracking; type: cell-based; settings: HEK293 cells transfected with SLC7A13 and SLC3A1; labelled compound
T4 construct: heterodimeric light/heavy chain transporter, dimer of heterodimers; ectopically expressed in HEK293T / HEK293 cells (Expi293 for cryo-EM); with Amino acid transporter heavy chain SLC3A1
T4 sequence (Q8TCU3 1-470 F216A): T2 sequence (Q8TCU3 1-470) with F216A
T4 sequence (Q07837 1-685 partner): T1 sequence (Q07837 1-685 partner)

- Kd (SLC7A9-SLC3A1 complex): 107 ± 33.5 µM
- Kd (SLC7A13-SLC3A1 complex [1]): 112 ± 44 µM
Structure (SMILES): N[C@@H](CSSC[C@H](N)C(=O)O)C(=O)O [cystine]
- cystine uptake (SLC7A13-SLC3A1 complex [2]): mutation in any of the seven SLC7A13-specific residues to alanine significantly reduced SLC7A13’s transporter activities
- cystine uptake (SLC7A13-SLC3A1 complex [3]): mutation in any of the seven SLC7A13-specific residues to alanine significantly reduced SLC7A13’s transporter activities
